Laboratory results reported in patent US10960088B2, “Macrocycles, cobalt and iron complexes of same, and methods of making and using same” (The Research Foundation for The State University of New York, priority 2013, dated 2021).

What was measured:
[1] = Dissociation of complex over time monitored by 1H NMR; format: physicochemical; details: for % Dissociation Anions / % Dissociation Acidic: 10 mM Co^II complex; for % Dissociation Anions: 0.40 mM Na2HPO4, 25 mM K2CO3, 100 mM NaCl, pD 7.5-7.9, 12 hours at 37° C.; for % Dissociation Acidic: pD 3.5-3.9, 100 mM NaCl, 12 hours at 37° C.; for dissociation in presence of phosphate and carbonate (in words) / dissociation under acidic conditions (in words): 10 mM complex, 100 mM NaCl; for dissociation in presence of phosphate and carbonate (in words): 0.40 mM Na2HPO4, 25 mM K2CO3, pD 7.5-7.9, 12 hrs at 37° C.; for dissociation under acidic conditions (in words): D2O, pD 3.5-3.9, 1 hr vs 12 hrs (NOPE 4 hrs) at 37° C.
Procedure: Dissociation of the Co^II complexes was monitored via ^1H NMR spectroscopy of samples incubated at 37° C. over a period of 12 hours. To monitor acid dissociation, samples contained 10 mM Co^II complex, 100 mM NaCl, and 3-5 mM 3-(trimethylsilyl)-1-propanesulfonic acid sodium salt as a standard at pD 3.5-3.9. To assess the complexes in the presence of biologically relevant anions, solutions contained 10 mM Co^II complex, 100 mM NaCl, 0.40 mM Na2HPO4, 25 mM K2CO3, and 5 mM 3-(trimethylsilyl)-1-propanesulfonic acid sodium salt as a standard. Generally, 1024 transients were collected for each spectrum. […]

[2] = Displacement of Co^II by Cu^II monitored by UV-vis; format: physicochemical; details: 10-fold excess of Cu^II
Procedure: Samples contained 200 μM Co^II complex, 10 mM MES buffer pH 5.5 and 1, 4, or 10 equivalents of CuCl2. The formation of the Cu^II complexes was monitored at 264 nm, 286 nm, 312 nm and 310 nm for [Cu(TCMT)]^2+, [Cu(NOPE)]^2+, [Cu(TCMC)]^2+, and [Cu(CCRM)]^2+, respectively. A previously reported procedure was followed.

[3] = Exchange rate constants (omega plot); details: 10 mM complex; for kex: 20 mM HEPES pH 7.4, 100 mM NaCl, B1 8-24 μT, presat 4 s, 37° C., 11.7 T
Procedure: Exchange rate constants were calculated following a previously reported procedure. Measurements of on-resonance (Mz) and off-resonance (Mo) were acquired at different presaturation pulse powers between 350-1000 Hz (8-24 μT) applied for 4 seconds at 37° C. The exchange rate constant (kex) is calculated from the x-intercept from the plot of Mz/(Mo−Mz) against 1/ω1^2 (ω1 in rad/s). The rate constant, kex, is converted into units of s^−1. Samples contained 10 mM Co^II complex, 20 mM HEPES pH 7.4, and 100 mM NaCl.
The exchange rate constants were calculated by using a previously reported procedure. The magnetization of the on-resonance (Mz) and off-resonance (Mo) were acquired at different pre-saturation pulse powers between 350-1090 Hz applied for 4 seconds. To calculate the exchange rate constant (kb), the x-intercept (−1/kb^2) was obtained from the plot of Mz/(Mo−Mz) against 1/ω1^2 (ω1 in rad/s). Samples contained 16 mM [Co(TPT)]Cl2, 200 mM NaCl, and 40 mM MES or HEPES at pH 6.4-7.5. Measurements were carried out at 37° C.

[4] = CEST MR phantom imaging on 4.7 T scanner; details: 4 mM complex, pH 7.4-7.5, 37° C.; for % CEST: 20 mM HEPES, 100 mM NaCl, 4.7 T MRI scanner
Procedure: CEST MR images were acquired at 4.7 Tesla preclinical MR scanner using a 35 mm transceiver coil (ParaVision 3.0.2, Bruker Biospin, Billerica, Mass.) as detailed elsewhere. Two spoiled gradient-echo images (TE/TR=2.1/5010 ms, flip angle=90 deg) were acquired at 37° C. after employing a pulse train comprised of five Gauss pulses ([…] for 1 second each, interpulse delay of 200 μs) applied symmetrically about the bulk water resonance.
Image processing was carried out using in-house software algorithms developed in MATLAB (MathWorks, Natick, Mass.). Each image was normalized to the mean intensity of the buffer/salt phantom, and the mean signal intensity of each compound was sampled. The percent change in signal, or CEST effect (CE), was calculated as: CE=(1−SIon/SIoff)*100%, where SIon and SIoff represent the mean signal intensity of each sample with the pre-saturation pulse applied on- and off-resonance of the exchangeable protons, respectively. CEST images (FIGS. 14, 15) were calculated by determining CE on a pixel-by-pixel basis in MATLAB. To improve visualization of the CEST effect, images were filtered with a spatial averaging filter (kernel size=5×5), background noise was removed using a binary mask of the samples, and a ‘hotiron’ color lookup table was applied. […] Imaging parameters for the FID-FISP acquisition include: matrix=128×128, field of view=3.2×3.2 cm, TE/TR=1.5/3.0 ms, flip angle=90, number of repetitions=20. Processing was carried out as above with the exception that the 20 repetition image datasets were averaged together prior to normalization by the buffer signal intensity. The experiment was repeated with three separate preparations of [Co(CCRM)]^2+.
CEST images were acquired on a 4.7 Tesla preclinical MR scanner using a 35 mm radiofrequency coil and the ParaVision 3.0.2 research platform (Bruker Biospin, Billerica, Mass.). A pair of gradient-echo MR images were acquired at either 37° C. with a pre-saturation pulse train comprised of five 1 second Gauss pulses (12 μT, 200 μs interpulse delay) applied symmetrically about the bulk water resonance (+/−135 ppm). Other pertinent acquisition parameters include: echo time/repetition time=2.1/5010 ms, flip angle=90 deg, acquisition matrix=160×160, slice thickness=2 mm, field of view=32×32 mm, averages=1.
To determine the CEST effect, each image was normalized to the signal intensity of the buffer and salt-only phantom and the normalized image intensity of each phantom was sampled using commercially available software (Analyze 7.0, AnalyzeDirect Inc., Overland Park, Kans.). The percent loss of signal due to […] exchange was calculated using the following equation: % CEST=1−SIon/SIoff, eq. 9 where SIon and SIoff are the image intensities of each sample acquired with on-resonance and off-resonance pre-saturation pulses, respectively. To create the CEST image (FIG. 46), raw k-space data was zero-filled to a 512×512 matrix, reconstructed to spatial domain, filtered with a spatial low-pass filter (kernel size: 11×11) to improve signal-to-noise, and then normalized by image intensity of the buffer and salt-only phantom. The % CEST effect was calculated pixel-by-pixel using the normalized on/off resonance image pair in MATLAB (MathWorks, Natick, Mass.). Phantoms in the CEST image were isolated using binary masking techniques, and a “hot-iron” pseudocolor lookup table was applied to enhance perceptual contrast between samples.

SMILES | % Dissociation Anions [1] | % Dissociation Acidic [1] | dissociation in presence of phosphate and carbonate (in words) [1] | dissociation under acidic conditions (in words) [1] | dissociation with competing Cu^II (in words) [2] | kex [3] | % CEST [4] | dissociation under acidic conditions within the first hour ([1]; pD 3.5-3.9, 37° C., first hour) | kex, peak at 95 ppm ([3]; peak at 95 ppm, pH 7.4, 37° C.) | kex, peak at 112 ppm ([3]; peak at 112 ppm, pH 7.4, 37° C.) | % CEST, peak at 95 ppm ([4]; peak at 95 ppm, 4.7 T) | % CEST, peak at 112 ppm ([4]; peak at 112 ppm, 4.7 T) | dissociation with competing Cu^II ([2]; over 4 hours)
NC(=O)CN1CCOCCOCCN(CC(N)=O)CCOCC1.[Co+2] [[Co(NOPE)]^2+] | <1% | 16% | doesn't dissociate | doesn't dissociate | dissociating completely within one hour | 240 s⁻¹ | 12% |  |  |  |  |  | 
NC(=O)CN1CCCN(CC(N)=O)CCN(CC(N)=O)CCCN(CC(N)=O)CC1.[Co+2] [[Co(CCRM)]^2+] | 5% | 95% | doesn't dissociate | doesn't dissociate | dissociating completely within one hour |  |  | 95% | 910 s⁻¹ | 510 s⁻¹ | 5% | 8% | 
NC(=O)CN1CCN(CC(N)=O)CCN(CC(N)=O)CCN(CC(N)=O)CC1.[Co+2] [[Co(TCMC)]^2+] | 2% | 7% | doesn't dissociate | doesn't dissociate | inert to dissociation | 300 s⁻¹ | 12% |  |  |  |  |  | 
NC(=O)CN1CCN(CC(N)=O)CCN(CC(N)=O)CC1.[Co+2] [[Co(TCMT)]^2+] | 5% | 1% | doesn't dissociate | doesn't dissociate |  | 890 s⁻¹ | 8% |  |  |  |  |  | ~15%
